Source: PubChem BioAssay AID624404 (Broad Institute, 2012)
Results filed as inconclusive are left out.

System: D54 LucT luciferase reporter counterscreen, luminescence, 24 h
Test: reporter signal increase, D54 LucT cells – cell-based, luminescence, cherry pick, counter-screen for N-linked glycosylation inhibitor project, dose response (AID 624404)

SMILES	AC35
Cc1ccnc2nc(C(=O)Nc3cc(Cl)ccc3N3CCOCC3)nn12	155 nM
Cc1ccc2c(CC(=O)NCc3ccco3)coc2c1C	4460 nM
CCN1C(=O)c2cccc3c(S(=O)(=O)Nc4ccccc4OC)ccc1c23	896 nM
CC(Nc1nc(-c2ccccc2O)nc2ccccc12)c1ccccc1 (stereo not given)	39.5 nM
COc1cc(Nc2nc3c(N)cc(C(F)(F)F)cc3nc2-c2ccccc2)cc(OC)c1OC	3870 nM
Cc1ccc(NC(=O)c2ncn(CCCNCc3ccccc3)n2)cc1C	994 nM
CCn1c2ccccc2c2cc(NC(=O)COC(=O)c3ccccc3F)ccc21	4220 nM
COc1ccc(-n2c(=S)[nH]c3cc(C(=O)NC4CCCCC4)ccc3c2=O)c(OC)c1	414 nM
Cc1ccc(C(=O)c2coc3c2C(=O)C(=O)c2ccccc2-3)cc1	4050 nM
COc1cc(Nc2c3ccccc3nc3ccccc23)cc(OC)c1OC	4160 nM
CC#CCN1c2ccccc2[C@]23C[C@@H](C(=O)OC)N(C(=O)c4cc(C)oc4C)C2=NC(C(=O)OC)=C(C(=O)OC)[C@H]13	2270 nM
COc1ccc(CNC(=O)c2cccc3c(-c4cccc(C(N)=O)c4)coc23)cc1OC	408 nM
O=C(N/N=C/c1ccc2c(c1)OCO2)C1COc2ccccc2O1 (stereo not given)	187 nM
CCc1cccc(CC)c1NC(=O)CN1C2CCCC1CC(NC(=O)Nc1cccc(OC)c1)C2 (stereo not given)	3140 nM
O=C(COc1ccccc1)Nc1cccc(-c2cn3cccnc3n2)c1	1080 nM
CC(=O)Nc1cccc(-c2ccnc3c2CC(C)(C(=O)NCC2CC2)O3)c1 (stereo not given)	11500 nM
CC(=O)C1=C(O)C(=O)N(c2ccc(Br)cn2)C1c1ccc(Br)cc1 (stereo not given)	55.2 nM
NC(=O)CC(NC(=O)Cc1ccc(Br)cc1)c1ccc(NC2CCC2)c([N+](=O)[O-])c1 (stereo not given)	1710 nM
COc1ccccc1/C=C/C(=O)/C=C/c1ccccc1O	266 nM
Cc1ccc(C)n1-c1cccc(NC(=O)c2ccccc2)c1	7120 nM
Cc1cc(-c2nnc3n2N=C(c2ccc(-c4ccccc4)cc2)CS3)n[nH]1	1260 nM
Cc1ccc(C)n1-c1ccc(C(=O)/C=C/N(C)C)cc1	1050 nM

SMILES	AC35
O=C(CCl)Nc1cc(S(=O)(=O)N2CCCCCC2)ccc1Cl	1160 nM
CC(C)(C)c1ccc(OCc2ccc(C(=O)Nc3cccnc3)o2)cc1	519 nM
COc1cc2c(cc1OC)C(c1cccs1)N(C(=O)c1ccncc1)CC2 (stereo not given)	1700 nM
COc1cccc(N2CCN(C(=O)c3ccc(CS(=O)c4ccc(Cl)cc4)o3)CC2)c1 (stereo not given)	773 nM
O=C1N[C@H]2CC=C[C@H]2N(Cc2cccs2)c2ccccc21	199 nM
COc1cc(C(=O)Nc2cc(C(F)(F)F)ccc2N2CCOCC2)ccc1OCC(=O)N1CCOCC1	2130 nM
COc1ccccc1N=CC1=C(O)CC(c2ccccc2)CC1=O (stereo not given)	173 nM
COc1ccc2c(c1)[C@H]1[C@H](CO2)[C@H](c2ccccc2)[C@]2(C)C(=O)Nc3cc(C)ccc3C(=O)N12	66.8 nM
O=C(NCCCn1ccnc1)c1cc(-c2cccs2)on1	2020 nM
COc1ccccc1-n1cnc2cc(NCc3cccs3)ccc21	266 nM
COc1cc(F)ccc1-c1csc(C(NC(C)=O)c2ccc(F)c(F)c2)n1 (stereo not given)	270 nM
NC(=O)CC(NC(=O)Cc1ccc(Br)cc1)c1ccc(NC2CC3CCC2C3)c([N+](=O)[O-])c1 (stereo not given)	210 nM
Cc1cccn2c(=O)c3cc(C(=O)NC4CCCCC4)n(C)c3nc12	7540 nM
O=C(NC1CCCCC1)c1cccc2c1C(=O)c1ccc(-c3ccc(OC(F)(F)F)cc3)cc1S2(=O)=O	31.2 nM
Cc1ccc2nc(-c3ccncc3)cc(C(=O)Nc3ccncc3)c2c1	64.6 nM
NC(=O)c1cccc(-c2coc3c(C(=O)NCc4ccccc4)cccc23)c1	3070 nM
COc1cc2c(cc1OC)C(c1ccccc1)N(C(=O)c1ccccc1F)CC2 (stereo not given)	608 nM
c1ccc(Cc2nnc(Sc3ccccc3)c3ccccc23)cc1	3830 nM
COc1cc(NC(=O)c2ccccc2OCc2ccccc2)cc(OC)c1OC	1080 nM
COc1ccc2c(c1)OC[C@H]1[C@H]2N2C(=O)c3ccc(C)cc3NC(=O)[C@@]2(C)[C@H]1c1ccccc1	658 nM
COc1cc(-c2[nH]ncc2CN2CCSCC2)cc(OC)c1OC	3500 nM
Cc1ccc(Nc2nc(-c3sc(C)nc3C)cs2)cc1	46.9 nM

SMILES	AC35
COc1ccccc1CCC(=O)Nc1ccc2c(c1)c(=O)n(C)n2-c1cccs1	2330 nM
CCOc1ccc(/C=C2\SC(N3CCCCC3)=NC2=O)cc1	5570 nM
N#Cc1c(NC(=O)/C=C/c2ccco2)sc2c1CCCC2	115 nM
CC(=O)Nc1ccc(Nc2ccc3c4c(cc(=O)n3C)-c3ccccc3C(=O)c24)cc1	345 nM
Cc1noc(C)c1-c1ccc(C(=O)NCc2cccnc2)c2occc12	297 nM
O=C(N/N=C\c1cn(-c2ccccc2)nc1-c1ccccc1)c1ccc(Br)o1	957 nM
C[C@@]12C(=O)Nc3cc(F)c(F)cc3C(=O)N1[C@H]1c3ccccc3OC[C@@H]1[C@@H]2c1ccccc1	746 nM
COc1cccc(OCc2nc3ncc(Br)cc3[nH]2)c1	2480 nM
Cc1ccc2c(c1)C(=O)N1[C@H]3c4cc(Cl)ccc4OC[C@@H]3[C@H](c3ccccc3)[C@]1(C)C(=O)N2	650 nM
Cn1c(=O)[nH]c(=O)c2c1nc(NN)n2CCOc1ccccc1	3090 nM
COc1cccc(Sc2ccccc2/C=N/NC(N)=O)c1	3390 nM
Nc1c(C(=O)c2ccccc2)sc2nsc(SCCN3CCOCC3)c12	57.8 nM
CC1CN(C(=O)c2cc(-c3ccncc3)nc3ccccc23)CC(C)O1 (stereo not given)	1720 nM
Cc1ccc(C(=O)NCc2nnc(SCC(=O)NC(C)c3ccccc3)n2C)cc1 (stereo not given)	2430 nM
COc1ccc(NC2=C(C)C(=O)CC2)cc1	380 nM
O=C(COC(=O)Cn1cnc2ccccc21)Nc1cccc2c1C(=O)c1ccccc1C2=O	459 nM
O=C(N/N=C/c1ccccn1)c1sc2ccccc2c1Cl	93.1 nM
Cn1c(=O)cc(OCCCC(=O)NC2CCCC2)c2ccccc21	3240 nM
CC(=O)c1cccc(Nc2cc(C)nc3c(C)cc(C)cc23)c1	23.4 nM
COc1ccc(/C=N/NC(=O)c2cccc(NC(=O)c3ccccc3Cl)c2)cc1	495 nM
COc1cc2[nH]c(C(=O)Nc3ccc(F)cc3)cc2c(OC)c1OC	98.2 nM
O=C(Nc1ncccc1O)c1ccc(S(=O)(=O)Nc2ccccc2)cc1	2190 nM

SMILES	AC35
Cn1cccc1/C=C1\SC(=Nc2cccc(O)c2)NC1=O	1760 nM
COc1cccc(NC(=O)CCCOc2cc(=O)n(C)c3ccccc23)c1	4630 nM
COc1ccc(CNC(=O)c2cccc3c(-c4cnn(C)c4)coc23)cc1OC	1300 nM
COc1ccc(/C=C/C(=O)c2ccc(Cl)s2)cc1O	6020 nM
Cc1nnc2c(NC3CCCCC3)nc3ccccc3n12	3510 nM
Cc1nnc2n(c1=O)N=C(c1ccc(Cl)cc1)CS2	33.5 nM
O=C1Cc2c([nH]c3ccc([N+](=O)[O-])cc23)-c2ccccc2N1	894 nM
CCOc1cc(C)nc(NCc2ccccc2)n1	5190 nM
CCc1ccc(OCC(=O)Nc2ccncc2)c(Br)c1	598 nM
OCCCCCN=c1cc(-c2ccccc2)oc2ccc(Cl)cc12	2190 nM
COc1ccccc1C(=O)Nc1ccc2c(c1)nc(CCNC(=O)c1ccco1)n2C	45.3 nM
O=C(O)c1ccc(CN2C(=O)c3cccc4c([N+](=O)[O-])ccc(c34)C2=O)cc1	1140 nM
COc1cc2cnc(-c3ccccc3)cc2cc1OC	2540 nM
O=C(NCc1ccccc1Br)c1cccc2c1C(=O)c1ccc(-c3ccc(OC(F)(F)F)cc3)cc1S2(=O)=O	408 nM
COc1ccc2c(c1)[C@H]1[C@H](CO2)[C@H](c2ccccc2)[C@]2(C)C(=O)Nc3cc(F)c(F)cc3C(=O)N12	469 nM
Cc1ccc(C(=O)N2CCN(Cc3ccccc3)CC2)cc1S(=O)(=O)N1CCOCC1	2960 nM
CSCCOC(=O)c1[nH]c2c(c1C)C(=O)CC(c1ccco1)C2 (stereo not given)	627 nM
COc1ccc(C(=O)/C=C/c2ccc(OC)c(O)c2)c(F)c1	219 nM
COc1ccc(-c2cc(C(F)F)n3ncc(C(=O)n4ccnc4C)c3n2)cc1	2770 nM
COc1ccc2c(c1)OC[C@H]1[C@H]2N2C(=O)c3cc(Br)ccc3NC(=O)[C@@]2(C)[C@H]1c1ccccc1	944 nM
CN(C)C(CNC(=O)CSc1nc2sc3c(c2c(=O)n1C)CCCC3)c1ccccc1 (stereo not given)	682 nM
Nc1c(N(Cc2ccccc2)C(=O)COc2ccc([N+](=O)[O-])cc2)c(=O)[nH]c(=O)n1Cc1ccccc1	303 nM

SMILES	AC35
CCN1C(=O)Nc2cccc3cccc1c23	3140 nM
C=CCn1c(O)c(/C=C2/C=CC=N2)c(=O)[nH]c1=O	14300 nM
C/C(=N\O)C(=O)C(CN1CCCCC1)CN1CCCCC1	1210 nM
CC(CCc1ccco1)NC(=O)CCc1nnc2ccc(NCc3ccc(Cl)cc3)nn12 (stereo not given)	1580 nM
Cc1ccc(-n2nc(C)c(/C=N/NC(=O)c3cccs3)c2Cl)cc1	55.6 nM
COc1ccc(/C(C)=N/NC(=O)c2ccccc2OCc2ccccc2)c(OC)c1	56 nM
Cc1ccc(CC(=O)NCc2ccc(F)cc2)cc1	4270 nM
CC(=O)Nc1ccc(CNc2ncnc3ccc(-c4c(C)noc4C)cc23)cc1	264 nM
COc1ccc(Nc2nc3cc(-c4sccc4C)sc3c(=O)n2C)cc1OC	104 nM
Cc1ccc(C=Nc2ccccc2C(N)=O)cc1	2750 nM
Cn1c(=O)n(C)c2cc(NS(=O)(=O)c3ccc4c(c3)CCCC4)ccc21	416 nM
CC[C@H](C)C(=O)O[C@H]1C[C@@H](C)C=C2C=C[C@H](C)[C@H](CC[C@@H]3C[C@@H](O)CC(=O)O3)[C@H]21	695 nM
Cc1ccc(C(=O)Nc2ccc(C(=O)/C=C/c3cccs3)cc2)cc1	709 nM
COC(=O)c1ccc2c(=O)n(Cc3ccc(C(=O)NC(C)C)cc3)c(=S)[nH]c2c1	4280 nM
COc1ccc2oc(-c3ccccc3[N+](=O)[O-])cc(=O)c2c1	174 nM
O=c1cc(-c2ccccc2)[nH]c2cc(F)ccc12	2380 nM
Cc1ccc(S(=O)(=O)c2cc3c(=O)n4ccccc4nc3n(CCc3ccccc3)c2=N)cc1	75.9 nM
O=C(N/N=C/c1ccccc1)c1sccc1OCc1ccc(F)cc1	3060 nM
O=C(c1cccc(Oc2ccccc2)c1)N1CCN(c2ccccn2)CC1	2960 nM
COc1cc(CN2CCc3ccccc3C2)ccc1O	2000 nM
O=S(=O)([N-]c1nc2ccccc2nc1-n1cc[n+](Cc2ccccc2)c1)c1ccccc1	648 nM
COc1cccc(-c2cnc3c(NC(C)=O)cc(-c4cc(F)ccc4OC)cn23)c1	4270 nM
